Reference: the CheMixHub viscosity set
Several values for one entry are separate records, joined by “and”; a condition that tells them apart may be missing. Equal values may be shown once. ± gives the uncertainty stated by the source.

Test: xn = mol fraction of the nth substance listed
Conditions: 101.3 kPa

SMILES: O=[N+]([O-])c1ccccc1 + CCCCC
- viscosity (293.15 K, x1 = 0.0998): 0.272 ± 0.002 mPa·s
- viscosity (293.15 K, x1 = 0.1994): 0.336 ± 0.003 mPa·s
- viscosity (293.15 K, x1 = 0.5984): 0.79 ± 0.005 mPa·s
- viscosity (293.15 K, x1 = 0.6995): 0.972 ± 0.006 mPa·s
- viscosity (293.15 K, x1 = 0.7997): 1.221 ± 0.007 mPa·s
- viscosity (293.15 K, x1 = 0.9): 1.549 ± 0.009 mPa·s
- viscosity (297.15 K, x1 = 0.0998): 0.262 ± 0.002 mPa·s
- viscosity (297.15 K, x1 = 0.1994): 0.322 ± 0.003 mPa·s
- viscosity (297.15 K, x1 = 0.299): 0.42 ± 0.003 mPa·s
- viscosity (297.15 K, x1 = 0.3491): 0.52 ± 0.004 mPa·s
- viscosity (297.15 K, x1 = 0.399): 0.596 ± 0.004 mPa·s
- viscosity (297.15 K, x1 = 0.4589): 0.603 ± 0.004 mPa·s
- viscosity (297.15 K, x1 = 0.494): 0.623 ± 0.004 mPa·s
- viscosity (297.15 K, x1 = 0.5984): 0.748 ± 0.005 mPa·s
- viscosity (297.15 K, x1 = 0.6995): 0.921 ± 0.006 mPa·s
- viscosity (297.15 K, x1 = 0.7997): 1.15 ± 0.007 mPa·s
- viscosity (297.15 K, x1 = 0.9): 1.452 ± 0.009 mPa·s
- viscosity (297.16 K, x1 = 0.383): 0.62 ± 0.15 mPa·s
- viscosity (297.17 K, x1 = 0.299): 0.42 ± 0.003 mPa·s
- viscosity (297.17 K, x1 = 0.3491): 0.517 ± 0.004 mPa·s
- viscosity (297.17 K, x1 = 0.383): 0.619 ± 0.16 mPa·s and 0.617 ± 0.15 mPa·s and 0.61 ± 0.15 mPa·s
- viscosity (297.17 K, x1 = 0.3832): 0.614 ± 0.004 mPa·s
- viscosity (297.17 K, x1 = 0.399): 0.591 ± 0.004 mPa·s
- viscosity (297.17 K, x1 = 0.4589): 0.602 ± 0.004 mPa·s
- viscosity (297.17 K, x1 = 0.494): 0.623 ± 0.004 mPa·s
- viscosity (297.18 K, x1 = 0.383): 0.604 ± 0.12 mPa·s
- viscosity (297.2 K, x1 = 0.383): 0.593 ± 0.1 mPa·s
- viscosity (297.23 K, x1 = 0.383): 0.583 ± 0.058 mPa·s
- viscosity (297.29 K, x1 = 0.383): 0.565 ± 0.046 mPa·s
- viscosity (297.34 K, x1 = 0.383): 0.558 ± 0.025 mPa·s
- viscosity (297.44 K, x1 = 0.383): 0.546 ± 0.017 mPa·s
- viscosity (297.6 K, x1 = 0.383): 0.535 ± 0.01 mPa·s
- viscosity (297.65 K, x1 = 0.0998): 0.261 ± 0.002 mPa·s
- viscosity (297.65 K, x1 = 0.1994): 0.321 ± 0.003 mPa·s
- viscosity (297.65 K, x1 = 0.299): 0.415 ± 0.003 mPa·s
- viscosity (297.65 K, x1 = 0.3491): 0.488 ± 0.004 mPa·s
- viscosity (297.65 K, x1 = 0.3832): 0.532 ± 0.004 mPa·s
- viscosity (297.65 K, x1 = 0.399): 0.55 ± 0.004 mPa·s
- viscosity (297.65 K, x1 = 0.4589): 0.592 ± 0.004 mPa·s
- viscosity (297.65 K, x1 = 0.494): 0.616 ± 0.004 mPa·s
- viscosity (297.65 K, x1 = 0.5984): 0.743 ± 0.005 mPa·s
- viscosity (297.65 K, x1 = 0.6995): 0.915 ± 0.006 mPa·s
- viscosity (297.65 K, x1 = 0.7997): 1.142 ± 0.007 mPa·s
- viscosity (297.65 K, x1 = 0.9): 1.441 ± 0.009 mPa·s
- viscosity (298 K, x1 = 0.383): 0.52 ± 0.006 mPa·s
- viscosity (298.15 K, x1 = 0.0998): 0.26 ± 0.002 mPa·s
- viscosity (298.15 K, x1 = 0.1994): 0.319 ± 0.003 mPa·s
- viscosity (298.15 K, x1 = 0.299): 0.411 ± 0.003 mPa·s
- viscosity (298.15 K, x1 = 0.3491): 0.476 ± 0.003 mPa·s
- viscosity (298.15 K, x1 = 0.3832): 0.515 ± 0.004 mPa·s
- viscosity (298.15 K, x1 = 0.399): 0.536 ± 0.004 mPa·s
- viscosity (298.15 K, x1 = 0.4589): 0.584 ± 0.004 mPa·s
- viscosity (298.15 K, x1 = 0.494): 0.61 ± 0.004 mPa·s
- viscosity (298.15 K, x1 = 0.5984): 0.738 ± 0.005 mPa·s
- viscosity (298.15 K, x1 = 0.6995): 0.909 ± 0.006 mPa·s
- viscosity (298.15 K, x1 = 0.7997): 1.134 ± 0.007 mPa·s
- viscosity (298.15 K, x1 = 0.9): 1.43 ± 0.009 mPa·s
- viscosity (298.76 K, x1 = 0.383): 0.504 ± 0.005 mPa·s
- viscosity (299.15 K, x1 = 0.0998): 0.257 ± 0.002 mPa·s
- viscosity (299.15 K, x1 = 0.1994): 0.316 ± 0.003 mPa·s
- viscosity (299.15 K, x1 = 0.299): 0.404 ± 0.003 mPa·s
- viscosity (299.15 K, x1 = 0.3491): 0.461 ± 0.003 mPa·s
- viscosity (299.15 K, x1 = 0.3832): 0.498 ± 0.004 mPa·s
- viscosity (299.15 K, x1 = 0.399): 0.518 ± 0.004 mPa·s
- viscosity (299.15 K, x1 = 0.4589): 0.571 ± 0.004 mPa·s
- viscosity (299.15 K, x1 = 0.494): 0.6 ± 0.004 mPa·s
- viscosity (299.15 K, x1 = 0.5984): 0.729 ± 0.005 mPa·s
- viscosity (299.15 K, x1 = 0.6995): 0.897 ± 0.006 mPa·s
- viscosity (299.15 K, x1 = 0.7997): 1.118 ± 0.007 mPa·s
- viscosity (299.15 K, x1 = 0.9): 1.406 ± 0.008 mPa·s
- viscosity (299.88 K, x1 = 0.383): 0.489 ± 0.004 mPa·s
- viscosity (302.28 K, x1 = 0.383): 0.466 ± 0.004 mPa·s
- viscosity (305.15 K, x1 = 0.0998): 0.245 ± 0.002 mPa·s
- viscosity (305.15 K, x1 = 0.1994): 0.298 ± 0.002 mPa·s
- viscosity (305.15 K, x1 = 0.299): 0.373 ± 0.003 mPa·s
- viscosity (305.15 K, x1 = 0.3491): 0.417 ± 0.003 mPa·s
- viscosity (305.15 K, x1 = 0.3832): 0.447 ± 0.003 mPa·s
- viscosity (305.15 K, x1 = 0.399): 0.466 ± 0.003 mPa·s
- viscosity (305.15 K, x1 = 0.4589): 0.52 ± 0.004 mPa·s
- viscosity (305.15 K, x1 = 0.494): 0.551 ± 0.004 mPa·s
- viscosity (305.15 K, x1 = 0.5984): 0.677 ± 0.005 mPa·s
- viscosity (305.15 K, x1 = 0.6995): 0.831 ± 0.005 mPa·s
- viscosity (305.15 K, x1 = 0.7997): 1.031 ± 0.006 mPa·s
- viscosity (305.15 K, x1 = 0.9): 1.284 ± 0.008 mPa·s
- viscosity (305.99 K, x1 = 0.383): 0.442 ± 0.003 mPa·s
- viscosity (313.15 K, x1 = 0.0998): 0.229 ± 0.002 mPa·s
- viscosity (313.15 K, x1 = 0.1994): 0.277 ± 0.002 mPa·s
- viscosity (313.15 K, x1 = 0.299): 0.342 ± 0.003 mPa·s
- viscosity (313.15 K, x1 = 0.3491): 0.38 ± 0.003 mPa·s
- viscosity (313.15 K, x1 = 0.3832): 0.403 ± 0.003 mPa·s
- viscosity (313.15 K, x1 = 0.399): 0.424 ± 0.003 mPa·s
- viscosity (313.15 K, x1 = 0.4589): 0.471 ± 0.003 mPa·s
- viscosity (313.15 K, x1 = 0.494): 0.503 ± 0.004 mPa·s
- viscosity (313.15 K, x1 = 0.5984): 0.616 ± 0.004 mPa·s
- viscosity (313.15 K, x1 = 0.6995): 0.753 ± 0.005 mPa·s
- viscosity (313.15 K, x1 = 0.7997): 0.929 ± 0.006 mPa·s
- viscosity (313.15 K, x1 = 0.9): 1.143 ± 0.007 mPa·s
